Cytotoxicity data for 73 compounds are collected here from ChEMBL document CHEMBL3507680, “University of Dundee, Gates Library screen for HepG2 cell viability”.

The structures appear in SMILES notation.

This series is described as follows: Human HepG2 cell viability assay in 384 well format. The series is classed as toxicity, cell-based. Details: dose 125 nL, time 70.5 hour; cytotoxicity at 70.5 h: concentration not given beside the values. Conditions: HepG2 cells, read-out: Inhibition.
Turning to `CC(=O)N1CC(c2ccnc(Nc3ccc(C)cn3)n2)C1`, the cytotoxicity at 70.5 h is -4.62%.

With `Cc1cc(C2CCN(S(=O)(=O)c3cn(C)cn3)CC2)ccn1`, the cytotoxicity at 70.5 h was -9.79%.

For the compound `COc1cccc(-c2cnc(C3CCNCC3)cn2)c1`, the cytotoxicity at 70.5 h is -4.54%.

`Cn1nccc1C(=O)N1CCOC(Cc2ccc(Cl)cc2)C1` (stereo not drawn): the cytotoxicity at 70.5 h came to 0.563%. Turning to `Cc1cncc(C2CCN(C(=O)CCc3ccnn3C)CC2)n1`, the cytotoxicity at 70.5 h is 23.6%.

Take `Cc1[nH]c2ccc(C(=O)N3C[C@@H](O)[C@H](N4CCOCC4)C3)cc2c1C`: the cytotoxicity at 70.5 h was -1.3%. As for `CCN(Cc1ccncc1)CC1(O)CCN(C(=O)c2cccc(C)c2)C1` (stereo not drawn), the cytotoxicity at 70.5 h was -4.75%.

`Nc1nccnc1C1CN(C(=O)c2ccnnc2)CCO1` (stereo not drawn): the cytotoxicity at 70.5 h was -6.55%.

Take `O=C(N[C@@H]1CCC[C@@H](N2CCCC2)[C@@H]1O)c1cnn2cccnc12`: the cytotoxicity at 70.5 h was -1.75%. With `O=C(N[C@@H]1CC[C@@H](N2CCOCC2)[C@@H]1O)c1cnn2cccnc12`, the cytotoxicity at 70.5 h is 21.8%.

As for `Cc1nc2ccccn2c1CC(=O)N[C@@H]1CC[C@@H](N2CCCC2)[C@@H]1O`, the cytotoxicity at 70.5 h is -5.16%. To `O=C(C1CCN(c2cccnn2)C1)N1CCOCC1` (stereo not drawn) belongs 1.06%; to `CNC(=O)c1cn[nH]c1C1(C)CCCN(Cc2ccccc2OC)C1` (stereo not drawn), 3.23%. As to `CCCc1ncc(CNC2(c3ccc(Cl)cc3)CCC2)cn1`, the cytotoxicity at 70.5 h is -4.55%. For the compound `CC(C)c1ncc(CNC2(c3ccc(Cl)cc3)CC2)cn1`, the cytotoxicity at 70.5 h was -1.4%.

On to `COCCc1ncc(CNC2(c3ccc(Cl)cc3)CC2)cn1`, for which the cytotoxicity at 70.5 h is 0.0528%. For `c1ccc(-c2cc(CNCCN3CCCC3)c3nnnn3c2)cc1`, the cytotoxicity at 70.5 h was -3.47%.

For `COc1ccc(CC(=O)N2CCCC2c2nc(C)c(C)c(O)n2)cc1` (stereo not drawn), the cytotoxicity at 70.5 h was -2.14%.

In the case of `Cc1nc(C2CCCN2C(=O)Cc2cccc(F)c2)nc(O)c1C` (stereo not drawn), the cytotoxicity at 70.5 h amounted to 21.4%. Under `O=C(c1ccc(F)cc1)N(CCCO)S(=O)(=O)c1cccs1` stands -16.3%; under `Cc1ccc(N2CCC(NC(C)c3ccc(C)o3)CC2)nc1` (stereo not drawn), -4.68%. Under `Cn1cc(C2CCCN2C(=O)CCCc2nc3ccccc3[nH]2)cn1` (stereo not drawn) stands 4.56%; under `O=C(COCC1CC1)N1CCCC1c1nc(-c2ccccc2F)c[nH]1` (stereo not drawn), 2.15%. As to `Cc1noc(CNc2ccc(CC(=O)N3CCSCC3)cc2)n1`, the cytotoxicity at 70.5 h is -5.52%. Under `CCc1noc(CNc2ccc(CC(=O)N3CCSCC3)cc2)n1` stands -6.52%; under `Cn1c(CS(=O)(=O)Cc2ccc(Cl)cc2)cc(=O)n(C)c1=O`, -6.35%.

As to `Cn1c(CS(=O)(=O)c2ccc(Cl)cc2)cc(=O)n(C)c1=O`, the cytotoxicity at 70.5 h is -4.14%. Turning to `COc1ccc(C(NC(=O)NCc2nnc3n2CCC3)C2CC2)cc1` (stereo not drawn), the cytotoxicity at 70.5 h stood at 14.3%. `CN(C)C(=O)c1cccc(NC(=O)c2cnn(C)c2)c1`: the cytotoxicity at 70.5 h is -4.77%. Regarding `Cc1ccccc1CC(=O)NCCNc1nccc(C(F)(F)F)n1`, the cytotoxicity at 70.5 h is -8.29%.

Regarding `COc1cccc(C(CO)NC(=O)NC(C)C)c1` (stereo not drawn), the cytotoxicity at 70.5 h came to 11.8%. Under `CC(Cc1c(F)cccc1F)NC(=O)NCc1ncnn1C` (stereo not drawn) stands -2.54%. Under `CC(CCc1cccc(F)c1)NC(=O)NCc1ncnn1C` (stereo not drawn) stands -5.76%; under `CC(=O)N1CCCC(c2nc(-c3ccccc3)c[nH]2)C1` (stereo not drawn), -3.53%. To `CC(C)(C)Oc1ccncc1NCc1cscn1` belongs -3.05%. For the compound `COc1cccc(C(CO)NC(=O)Cc2ccc(F)c(Br)c2)c1` (stereo not drawn), the cytotoxicity at 70.5 h was -3.64%.

For `CN(C)C(=O)c1cccc(Nc2cnn(C)c2)c1`, the cytotoxicity at 70.5 h is -3.59%.

Turning to `CNC(=O)c1cccc(Nc2cnn(C)c2)c1`, the cytotoxicity at 70.5 h is -1.28%.

As to `CCOCCCC(=O)N1CCCC1c1nc(-c2ccccc2F)c[nH]1` (stereo not drawn), the cytotoxicity at 70.5 h was -2.77%. In the case of `Cn1cc(Nc2cccc(C(=O)N(CC(N)=O)C3CCCC3)c2)cn1`, the cytotoxicity at 70.5 h was -3.71%.

On to `CC(NCCCn1ccnc1)c1ccc(N2CCOC2=O)cc1` (stereo not drawn), for which the cytotoxicity at 70.5 h came out at 16.7%. Under `Cc1ccccc1C(C)NC(=O)CN1CCN(Cc2cccs2)CC1` (stereo not drawn) stands 0.186%. Consider `O=C(CCC1CCCCC1)NCc1nnc2ccccn12`, for which the cytotoxicity at 70.5 h is -1.08%. With `CN(C)Cc1ccccc1NC(=O)c1ccc(C#N)cc1`, the cytotoxicity at 70.5 h is -7.54%. To `CN(Cc1nnc2ccccn12)C(=O)CCNC(=O)C(C)(C)C` belongs 17.1%; to `CN(c1ncccc1C#N)C1CCN(Cc2ccncc2)CC1`, -3.31%; to `Cc1nc(-c2ccccc2)sc1C(=O)N(C1CC1)C1CC(=O)NC1=O` (stereo not drawn), -8.02%.

For the compound `Cc1cnc(NS(=O)(=O)c2cccc(C#N)c2)s1`, the cytotoxicity at 70.5 h amounted to 20.1%. Consider `Cc1cccc(NC(=O)CCC(=O)NCC(=O)c2ccccc2F)c1`, for which the cytotoxicity at 70.5 h was determined as 2.08%.

On to `CC(C)(C)n1cc(CNC2CCN(C(=O)c3ccncc3)CC2)cn1`, for which the cytotoxicity at 70.5 h is -1.24%. Take `O=C(CCC(=O)Nc1ccccc1)NCC(=O)c1ccc(F)cc1F`: the cytotoxicity at 70.5 h is 5.75%.

On to `O=C1CC(N(C(=O)c2csc(-c3ccccc3)n2)C2CC2)C(=O)N1` (stereo not drawn), for which the cytotoxicity at 70.5 h is 10.8%. Under `CN(Cc1nnc2ccccn12)C(=O)CCC1CCCC1` stands -8.63%; under `CN(c1ncccc1C#N)C1CCN(CCc2ccncc2)CC1`, -1.68%. As for `Cc1nc2n(n1)CC(NCc1nc(-c3cccs3)no1)CC2` (stereo not drawn), the cytotoxicity at 70.5 h was found to be 0.591%. Consider `CC(C)(C)OC(=O)N1CCC(NCc2cnn(C(C)(C)C)c2)CC1`, for which the cytotoxicity at 70.5 h was -2.5%. Under `Cc1nc2cc(=O)[nH]n2c(C)c1CNC(=O)C(C)Cc1ccccc1` (stereo not drawn) stands 3.77%; under `Cc1ccc(CC(=O)NCC(O)c2cc(Cl)cc(Cl)c2)cn1` (stereo not drawn), -3.94%. `CCc1nnc(SC2CCN(c3ccccc3F)C2=O)n1C` (stereo not drawn): the cytotoxicity at 70.5 h was -2.9%. To `COC(C(=O)NCc1c(C)nc2cc(=O)[nH]n2c1C)c1ccccc1` (stereo not drawn) belongs -3.2%; to `Cn1c(N)nnc1SC1CCCN(c2ccccc2F)C1=O` (stereo not drawn), -1.56%.

Regarding `CCOc1ccc(NC(=O)c2[nH]c(C)cc2C)cc1CO`, the cytotoxicity at 70.5 h came out at 20.6%. `CCOc1ccc(NC(=O)c2ccc(C#N)cc2C)cc1CO`: the cytotoxicity at 70.5 h was -1.73%.

For the compound `Cn1c(CO)cnc1SC1CCCN(c2ccccc2F)C1=O` (stereo not drawn), the cytotoxicity at 70.5 h stood at 6.04%. Turning to `CC(C)(C)n1cc(CNC2CCN(C(=O)c3ccco3)CC2)cn1`, the cytotoxicity at 70.5 h was determined as 1.29%. Under `CC(NCCCn1cccn1)c1ccc(N2CCCS2(=O)=O)cc1` (stereo not drawn) stands -4.88%. Under `CCOc1ccc(NC(=O)Cc2cc(C)[nH]n2)cc1CO` stands -7.67%; under `Cc1cc(C(=O)N2CCc3nc(C4CCCCN4)ncc3C2)cs1` (stereo not drawn), -7.25%; under `Fc1ccccc1OCCc1cc(C2CNCCO2)n[nH]1` (stereo not drawn), -5.54%.

Regarding `CC(C)OCCCN(Cc1ccncc1)Cc1cc(F)ccc1F`, the cytotoxicity at 70.5 h was -4.35%. In the case of `CCOc1ccc2ccccc2c1CNCC1CCS(=O)(=O)C1` (stereo not drawn), the cytotoxicity at 70.5 h was -3.67%. To `COc1ccccc1NCc1cscn1` belongs -1.66%.

In the case of `Cc1nc(C2CCN(Cc3ncc[nH]3)CC2)no1`, the cytotoxicity at 70.5 h was determined as 19.7%.
